The record followed here is PubChem BioAssay (NCI).

Each structure is given as a SMILES string.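 Exposure lasted 48 hours, with cells grown in 96-well plates and compounds tested at five concentrations. Definition used: TGI = concentration required for complete inhibition of growth.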 Some results are limits rather than exact numbers.

Some test systems named below: HS 578T breast; HCT-15 colon; SN12C renal; NCI-H226 lung; HCC-2998 colon; SF-539 CNS; U251 CNS; HCT-116 colon; KM12 colon; PC-3 prostate; MALME-3M melanoma; SK-MEL-28 melanoma; MDA-MB-435.
Test in all cases: inhibition of tumour cell growth, NCI panel, 48 h

`CNC(=O)OCc1nc(N=[N+]=[N-])n(C)c1COC(=O)NC`: the TGI in the assay with HS 578T breast, in the assay on HCT-15 colon, in the assay on SN12C renal, in the assay with NCI-H226 lung, in the assay with HCC-2998 colon and in the assay on SF-539 CNS was greater than 100 µM throughout. For the same molecule, the TGI with U251 CNS, in the assay with HCT-116 colon, with KM12 colon, in the assay on PC-3 prostate, in the assay on MALME-3M melanoma and in the assay on SK-MEL-28 melanoma was greater than 100 µM in each case. The TGI in the assay with MDA-MB-435 is greater than 100 µM.
As for `CCOC(=O)CON=c1c2ccccc2ccc2ccccc12`, the TGI with HS 578T breast, in the assay with HCT-15 colon, in the assay on SN12C renal, in the assay with NCI-H226 lung, in the assay on HCC-2998 colon and in the assay on SF-539 CNS was greater than 100 µM in each case. Moreover, the TGI in the assay on U251 CNS, in the assay with HCT-116 colon, with KM12 colon, in the assay with PC-3 prostate, with MALME-3M melanoma and with SK-MEL-28 melanoma was greater than 100 µM in each case. Also, in the assay with MDA-MB-435, the TGI was greater than 100 µM.
On to `Cc1ccccc1C1CC(=O)CC(c2ccccc2C)C12C(=O)NC(=S)NC2=O` (configuration not stated), for which the TGI in the assay with HS 578T breast is 97.2 µM; in the assay with HCT-15 colon it was 56.6 µM; in the assay with SN12C renal it was 67 µM; in the assay on NCI-H226 lung, 44.2 µM; with HCC-2998 colon it was 25.2 µM; with SF-539 CNS it was 48.9 µM. In addition, the TGI was greater than 100 µM in the assay with U251 CNS; 49 µM in the assay on HCT-116 colon; 53.6 µM in the assay on KM12 colon; 70 µM with PC-3 prostate; 78.4 µM in the assay on MALME-3M melanoma; 44.5 µM with SK-MEL-28 melanoma. For the same molecule, in the assay on MDA-MB-435, the TGI amounted to 62.4 µM.
As for `COc1cc(OC)c2nc(C)c3c(c2c1)OCC3`, the TGI with HS 578T breast, in the assay on HCT-15 colon, with SN12C renal, in the assay with NCI-H226 lung, in the assay on HCC-2998 colon and in the assay on SF-539 CNS was greater than 100 µM throughout. Also, the TGI in the assay on U251 CNS, in the assay on HCT-116 colon, with KM12 colon, in the assay on PC-3 prostate, in the assay with MALME-3M melanoma and with SK-MEL-28 melanoma was greater than 100 µM each time. Also, the TGI in the assay with MDA-MB-435 is greater than 100 µM.
